Source: article PMC10504561 (Plant Communications, 2023)

What was measured:
Assay in all cases: LC-DAD of product
Type in all cases: biochemical
Details in all cases: S-adenosyl-L-methionine co-substrate, pH 7.5, 28 °C, 2 h
Gmγ-TMT1 = biological target: T1, Gmγ-TMT1 (Glycine max, UniProt A0A4D6BQA3)
T1 sequence (A0A4D6BQA3 1-296): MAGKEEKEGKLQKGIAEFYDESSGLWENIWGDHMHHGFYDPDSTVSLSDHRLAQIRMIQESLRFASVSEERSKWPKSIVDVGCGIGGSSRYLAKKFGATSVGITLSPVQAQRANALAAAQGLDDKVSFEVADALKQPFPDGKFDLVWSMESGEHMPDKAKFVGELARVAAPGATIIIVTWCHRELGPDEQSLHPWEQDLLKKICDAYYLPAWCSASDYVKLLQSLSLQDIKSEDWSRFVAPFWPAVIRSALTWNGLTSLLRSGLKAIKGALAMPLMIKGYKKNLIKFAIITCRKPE

Gmγ-TMT3 = biological target: T2, Gmγ-TMT3 (Glycine max, UniProt A0A4D6BMW5)
T2 sequence (A0A4D6BMW5 1-302): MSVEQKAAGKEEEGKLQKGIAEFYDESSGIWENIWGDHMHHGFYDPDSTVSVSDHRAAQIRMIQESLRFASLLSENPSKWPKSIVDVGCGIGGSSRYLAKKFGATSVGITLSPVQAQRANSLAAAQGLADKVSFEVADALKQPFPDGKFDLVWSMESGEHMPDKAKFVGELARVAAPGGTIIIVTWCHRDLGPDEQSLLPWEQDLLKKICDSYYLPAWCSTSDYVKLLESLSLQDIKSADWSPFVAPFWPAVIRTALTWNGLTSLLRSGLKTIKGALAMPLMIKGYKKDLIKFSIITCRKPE

Gmγ-TMT2 = biological target: T3, Gmγ-TMT2 (Glycine max, UniProt Q56GA2)
T3 sequence (Q56GA2 51-350): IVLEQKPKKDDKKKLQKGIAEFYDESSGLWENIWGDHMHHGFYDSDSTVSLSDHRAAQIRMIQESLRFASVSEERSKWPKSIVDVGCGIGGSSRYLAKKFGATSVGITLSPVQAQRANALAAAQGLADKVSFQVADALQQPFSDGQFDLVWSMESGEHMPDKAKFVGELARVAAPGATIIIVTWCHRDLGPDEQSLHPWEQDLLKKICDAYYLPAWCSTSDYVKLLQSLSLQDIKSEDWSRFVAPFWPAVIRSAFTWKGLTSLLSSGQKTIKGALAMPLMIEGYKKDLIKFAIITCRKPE

Cc1c(O)cc2c(c1C)O[C@](C)(CCC[C@H](C)CCC[C@H](C)CCCC(C)C)CC2 [γ-T]
activity (Gmγ-TMT1): Gmγ-TMT3 had three-fold higher activity toward γ-T than Gmγ-TMT1 and Gmγ-TMT2 | activity (Gmγ-TMT3): Gmγ-TMT3 had three-fold higher activity toward γ-T than Gmγ-TMT1 and Gmγ-TMT2 | activity (Gmγ-TMT2): Gmγ-TMT3 had three-fold higher activity toward γ-T than Gmγ-TMT1 and Gmγ-TMT2
